The text below walks through data of patent publication US5084463A, “N-quinolinyl alkyl-substituted 1-aryloxy-2-propanolamine and propylamine derivatives possessing class III antiarrhythmic activity” (American Home Products Corporation, priority 1990, dated 1992).

Each structure is given as a SMILES string.

In test [1] the test system is Purkinje Fiber. The test is described as follows: Cardiac electrophysiology in vitro: action potential parameters of dog Purkinje fibers. Format: cell-based. The following applies: 3 μM, BCL = 300. As to the method:
Bundles of free-running Purkinje fibers with attached myocardium obtained from either ventricle of adult dog heart were pinned without stretching to the bottom of a 10 mL tissue chamber and continuously superfused with oxygenated Tyrode's solution at a flow rate of 5 mL/minute. The composition of the Tyrode's solution was (mM): NaCl, 138; KCl 4; CaCl2, 2; MgCl2, 0.5; NaHCO3, 24; dextrose, 5.5. The solution was aerated with 95% O2 --5% CO2 at 37° C. Bath temperature was maintained at 37°±0.5° C. by circulating the pre-warmed superfusate through a thermostatically controlled water bath immediately prior to entering the tissue chamber. […] The first derivative of the action potential upstroke (Vmax) was obtained using an analog differentiator circuit, coupled to a peak-hold circuit that retained the recorded value of Vmax for 30 to 70-msec. […] Action potential (AP) parameters measured included: diastolic take-off potential (or activation voltage, V(act); AP overshoot (Vos); AP duration measured as the time taken to repolarize to -20 mV (APD-20), -60 mV (APD-60), and -80 mV (APD-80); and maximal upstroke velocity (Vmax). An increase in APD-60 that occurred without a significant change in Vmax was taken, by definition, to indicate Class III antiarrhythmic activity "in vitro".

The conditions of test [2]: dextro enantiomer; Taggart et al. 1985, McComb et al. 1985; cited from earlier work.
Test [3] relates to Dog. The test is described as follows: Ventricular fibrillation threshold in dog. Format: in vivo, mongrel dog. The following applies: 5 mg/kg i.v. The protocol: VENTRICULAR FIBRILLATION THRESHOLD
Mongrel dogs of both sexes weighing 12 to 18 kg were anesthetized with sodium pentobarbital (35 mg/kg i.v. supplemented with 5 mg/kg/h) and artificially ventilated with room air (minute volume: 200 mL/kg).
A right thoracotomy was performed at the fifth intercostal space and the heart suspended in a pericardial cradle. Bipolar electrodes for stimulation were sutured to the free wall of the right atrium and to the right ventricle.
The dog heart was paced by a stimulus for driving a constant current isolation unit.
Ventricular fibrillation threshold (VFT) was determined during atrial pacing at […]. Trains of 4-msec duration square-wave pulses (50 Hz, 200-msec duration) were delivered to the right ventricle via the epicardial bipolar electrode (silver contacts 1 mm in diameter and 5 mm apart embedded in acrylic matrix). Trains of pulses were delivered every 12th paced beat and were timed to terminate with the end of the T wave of the ECG. Current intensity was increased progressively until ventricular fibrillation (VF) occurred. The lowest current intensity producing VF was defined as the ventricular fibrillation threshold (VFT). […] VFT was measured twice before drug administration to establish a stable pre-drug threshold. […]

In the case of `CN(Cc1ccc2ccccc2n1)CC(O)COc1ccc([N+](=O)[O-])cc1.Cl.Cl` (stereo not shown) [Example 3, 1-[Methyl(2-quinolinylmethyl)amino]-3-(4-nitrophenoxy)-2-propanol Dihydrochloride], the APD-60 entry in test [1] is “did not pace”. Consider `CC(C)NCC(O)c1ccc(NS(C)(=O)=O)cc1` (stereo not shown) [Sotalol, 4-(2-isopropylamino-1-hydroxyethyl)-methanesulfonamide], for which the “selective Class III antiarrhythmic activity” value in test [2] is listed as “selective Class III antiarrhythmic activity”. Take `CN(Cc1ccc2ccccc2n1)CC(O)COc1ccc(NS(C)(=O)=O)cc1` (stereo not shown) [Example 4, N-[4-[2-Hydroxy-3-[methyl(2-quinolinylmethyl)amino]propoxy]phenyl]methanesulfonamide]: the “Ventricular fibrillation threshold (current threshold necessary to induce fibrillation)” value in test [3] (n = 6, x + S.E., pre-drug vehicle 8 + 2) is given as 25 + 7 mA. In test [3] (of 6 animals), the animals defibrillated spontaneously is 2 animals.
